In patent US8420630B2 (Boehringer Ingelheim Pharma GmbH & Co. KG, priority 2001, dated 2013) one finds IC50 data, which are given here for 32 compounds.

SMILES strings stand for the structures. Some results are limits rather than exact numbers.

This assay deals with T1, CDK1/cyclinB1 (Homo sapiens, UniProt P06493).
T1 construct: made in house; host or cells: High Five insect cells (Trichoplusia ni), baculovirus coinfection
T1 sequence (P06493 whole entry): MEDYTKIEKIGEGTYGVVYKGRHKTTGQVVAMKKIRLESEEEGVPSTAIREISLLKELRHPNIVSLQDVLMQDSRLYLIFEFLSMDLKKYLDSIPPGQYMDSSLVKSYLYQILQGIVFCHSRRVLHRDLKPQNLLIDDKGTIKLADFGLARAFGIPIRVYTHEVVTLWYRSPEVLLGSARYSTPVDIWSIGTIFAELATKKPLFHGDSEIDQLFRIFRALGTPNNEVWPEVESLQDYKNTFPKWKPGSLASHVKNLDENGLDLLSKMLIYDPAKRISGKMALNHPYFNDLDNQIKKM
T1 sequence (P14635 whole entry partner): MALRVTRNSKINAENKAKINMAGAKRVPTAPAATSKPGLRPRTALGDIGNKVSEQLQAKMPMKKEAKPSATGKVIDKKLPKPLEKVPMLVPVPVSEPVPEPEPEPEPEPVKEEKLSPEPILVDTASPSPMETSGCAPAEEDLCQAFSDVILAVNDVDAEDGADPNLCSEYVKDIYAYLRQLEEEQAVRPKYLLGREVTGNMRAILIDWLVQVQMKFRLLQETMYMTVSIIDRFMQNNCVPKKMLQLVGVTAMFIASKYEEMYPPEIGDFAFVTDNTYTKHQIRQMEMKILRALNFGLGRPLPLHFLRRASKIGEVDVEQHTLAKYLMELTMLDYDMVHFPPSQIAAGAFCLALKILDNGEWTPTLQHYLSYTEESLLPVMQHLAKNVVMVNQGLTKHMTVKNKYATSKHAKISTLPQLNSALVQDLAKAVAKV
The assay is described as follows: Cyclin B1-CDK1 kinase inhibition test. Format: biochemical. The settings on record: CDK1 tests (Example 13); recombinant cyclin B1/CDK1, substrate histone H1; read-out: CDK1/cyclinB1 IC50 value. The procedure:
CDK4) were cloned by standard methods using RT-PCR, and cloned into a transfer vector (cyclin in pAcG2T made by Pharmingen, CDKs in p2Bac made by Invitrogen) for the baculovirus system. […] After thawing the cells were resuspended in lysing buffer (50 mM HEPES pH 7.5, 10 mM MgCl2, 1 mM DTT, 5 μg/ml leupeptin, 5 μg/ml aprotinin, 100 μM NaF, 100 μM PMSF, 10 mM β-glycerolphosphate, 100 μM Na3VO4, 30 mM nitrophenylphosphate, 17.5 ml of lysing buffer per 10^8 cells) and incubated on ice for 30 min. […] Cyclin D1-CDK4 was purified by means of a GST-tag on cyclin D1 and then using glutathione beads (total protein about 0.2 mg/ml). All the kinase tests were carried out in 96-well microtitre plates (Greiner PS) in a final volume of 60 μl. […] As a negative control the kinase reaction was carried out in the absence of the substrate histone H1. As a positive control the kinase reaction was carried out in the absence of a test substance. As an internal control 30 μM and 300 μM (final concentration) of the kinase inhibitor olomoucin (Alexis) were used. […] The kinase reaction is started by the addition of 10 μl of ATP mix (0.045 mM ATP, 0.5 μCi ^33P-ATP in kinase buffer) and incubated for 30 min at 30° C. and 600 rpm in a shaking incubator. After incubation the plates were placed on ice and the proteins were precipitated by the addition of 125 μl of ice-cold 5% trichloroacetic acid. After 15 min on ice the precipitates were transferred onto Packard Unifilter 96 GF/B plates with the Packard Harvester System, and collected by vacuum filtration. The precipitates were washed 4 times with dist. H2O at ambient temperature. The filter plates were then dried at 60° C. and 50 μl of scintillation liquid were added to each well (Ultima Gold, Packard). The plate was sealed up with Sealing Tape and after 1 h measured in a scintillation measuring apparatus (Micro Beta made by Wallac).
Turning to `CC(=O)NCCNc1nc(Nc2ccc(S(=O)(=O)N(C)C)cc2)ncc1Br` [Example 1(652), N-{2-[5-Bromo-2-(4-dimethylsulphamoyl-phenylamino)-pyrimidin-4-ylamino]-ethyl}-acetamide], the IC50 is < 100 nM.

In the case of `O=C1CCCN1CCCNc1nc(Nc2cc(Cl)cc(Cl)c2)ncc1C(F)(F)F` [Example 1(049), 2-(3,5-dichloro-phenylamino)-4-(3-(2-oxo-pyrrolidin-1-yl)-propyl-1-amino)-5-trifluoromethyl-pyrimidine], the IC50 was < 100 nM.

Regarding `NCCNc1nc(Nc2ccc(S(=O)(=O)N3CCOCC3)cc2)ncc1C(F)(F)F` [Example 1(689), N4-(2-amino-ethyl)-N2-[4-(morpholine-4-sulphonyl)-phenyl]-5-trifluoromethyl-pyrimidine-2,4-diamine], the IC50 was < 100 nM. Consider `O=[N+]([O-])c1cnc(Nc2cccc(Br)c2)nc1N1CCc2[nH]cnc2C1` [Example 1(119), 2-(3-bromophenylamino)-4-(1,4,6,7-tetrahydro-imidazo[4,5-c]pyridin-5-yl)-5-nitro-pyrimidine], for which the IC50 was < 100 nM.

As to `CC(=O)NCCNc1nc(Nc2ccc(Cl)c(C(F)(F)F)c2)ncc1C(F)(F)F` [Example 2(013), 2-(4-chloro-3-trifluoromethyl-phenylamino)-4-(2-acetylamino-ethylamino)-5-trifluoromethyl-pyrimidine], the IC50 was < 100 nM.

Regarding `CC(=O)NCCNc1nc(Nc2ccc(C(=O)O)cc2)ncc1C(F)(F)F` [Example 9(001), 4-[4-(2-acetylamino-ethylamino)-5-trifluoromethyl-pyrimidin-2-ylamino]-benzoic acid], the IC50 is < 100 nM. For `O=C1CCCN1CCCNc1nc(Nc2ccc(Cl)cc2)ncc1C(F)(F)F` [Example 1(011), 2-(4-chlorophenylamino)-4-(3-(2-oxo-pyrrolidin-1-yl)-propyl-1-amino)-5-trifluoromethyl-pyrimidine], the IC50 is < 100 nM. For `O[C@H]1CC[C@@H](Nc2nc(Nc3ccc(Cl)c(Cl)c3)ncc2C(F)(F)F)CC1` [Example 1(037), 2-(3,4-dichloro-phenylamino)-4-(cis-4-hydroxy-cyclohexylamino)-5-trifluoromethyl-pyrimidine], the IC50 is < 100 nM. For `CC(=O)NCCNc1nc(Nc2ccccc2)ncc1C(F)(F)F` [Example 2(062), N-[2-(2-phenylamino-5-trifluoromethylpyrimidin-4-ylamino)-ethyl]-acetamide], the IC50 is < 100 nM.

Regarding `CC(=O)NCCNc1nc(Nc2ccc(CC(=O)N(C)C)cc2)ncc1C(F)(F)F` [Example 2(053), 2-{4-[4-(2-Acetylamino-ethylamino)-5-trifluoromethyl-pyrimidin-2-ylamino]-phenyl}-N,N-dimethyl-acetamide], the IC50 is < 100 nM. In the case of `O=C1CCCN1CCCNc1nc(Nc2ccc3[nH]cnc3c2)ncc1C(F)(F)F` [Example 2(037), 1-{3-[2-(1H-Benzimidazol-5-ylamino)-5-trifluoromethyl-pyrimidin-4-ylamino]-propyl}-pyrrolidin-2-one], the IC50 was < 100 nM. `CC(=O)NCCNc1nc(Nc2cc(Cl)cc(Cl)c2)ncc1C(F)(F)F` [Example 2(015), 2-(3,5-Dichloro-phenylamino)-4-(2-acetylamino-ethylamino)-5-trifluoromethyl-pyrimidine]: the IC50 is < 100 nM.

Regarding `NCCCNc1nc(Nc2cccc(Cl)c2)ncc1C(F)(F)F` [Example 1(012), 2-(3-chlorophenylamino)-4-(3-aminopropyl-amino)-5-trifluoromethyl-pyrimidine], the IC50 is < 100 nM. The value for `CC(=O)NCCNc1nc(Nc2ccc(N)cc2)ncc1C(F)(F)F` [Example 2(004), N-{2-[2-(4-amino-phenylamino)-5-trifluoromethyl-pyrimidin-4-ylamino]-ethyl}-acetamide] was < 100 nM; that for `CC(=O)NCCNc1nc(Nc2ccc(S(=O)(=O)N3CCOCC3)cc2)ncc1C(F)(F)F` [Example 2(057), N-(2-{2-[4-(Morpholin-4-sulphonyl)-phenylamino]-5-trifluoromethyl-pyrimidin-4-ylamino}-ethyl)-acetamide] was < 100 nM. As for `CN1CCC2(CCN(c3nc(Nc4ccc(Cl)c(Cl)c4)ncc3C(F)(F)F)C2)C1` (centres unmarked) [Example 1(117), 2-(3,4-dichlorophenylamino)-4-(7-methyl-2,7-diaza-spiro[4.4]non-2-yl)-5-trifluoromethyl-pyrimidine], the IC50 was < 100 nM. The value for `O=C1CCCN1CCCNc1nc(Nc2ccc(Cl)c(Cl)c2)ncc1Br` [Example 1(661), 1-{3-[5-Bromo-2-(3,4-dichloro-phenylamino)-pyrimidin-4-ylamino]-propyl}-pyrrolidin-2-one] was < 100 nM; that for `NCCCCCNc1nc(Nc2cccc(Cl)c2)ncc1C(F)(F)F` [Example 1(077), 2-(3-chloro-phenylamino)-4-(5-amino-1-pentylamino)-5-trifluoromethyl-pyrimidine] was < 100 nM.

Take `CN(C)[C@H]1CC[C@H](Nc2nc(Nc3ccc(C(=O)O)cc3)ncc2C(F)(F)F)CC1` [Example 1(054), 2-(4-carboxy-phenylamino)-4-(trans-4-dimethylamino-cyclohexylamino)-5-trifluoromethyl-pyrimidine]: the IC50 is < 100 nM. In the case of `NCCNc1nc(Nc2ccc(Cl)c(Cl)c2)ncc1C(F)(F)F` [Example 1(080), 2-(3,4-dichloro-phenylamino)-4-(2-amino-1-ethylamino)-5-trifluoromethyl-pyrimidine] it was < 100 nM; in that of `CC(=O)NCCNc1nc(Nc2ccc3c(cnn3C)c2)ncc1C(F)(F)F` [Example 1(655), N-{2-[2-(1-methyl-1H-indazol-5-ylamino)-5-trifluoromethyl-pyrimidin-4-ylamino]-ethyl}-acetamide], < 100 nM.

With `NCCCNc1nc(Nc2ccc(Cl)c(Cl)c2)ncc1C(F)(F)F` [Example 1(035), 2-(3,4-dichloro-phenylamino)-4-(3-amino-propylamino)-5-trifluoromethyl-pyrimidine], the IC50 is < 100 nM. Take `CCC(=O)NCCCNc1nc(Nc2ccc3cnn(C)c3c2)ncc1C(F)(F)F` [Example 7(006), N-{3-[2-(1-methyl-1H-indazol-6-ylamino)-5-trifluoromethyl-pyrimidin-4-ylamino]-propyl}-propionamide]: the IC50 was < 100 nM. On to `O=C(O)CCc1ccc(Nc2ncc(C(F)(F)F)c(N3CCc4[nH]cnc4C3)n2)cc1` [Example 1(023), 2-(4-(2-carboxy-1-ethyl-)phenylamino)-4-(1,4,6,7-tetrahydro-imidazo[4,5-c]pyridin-5-yl)-5-trifluoromethyl-pyrimidine], for which the IC50 was < 100 nM. The value for `CNC(=O)c1ccc(Nc2ncc(C(F)(F)F)c(NCCNC(C)=O)n2)cc1Cl` [Example 8(003), 4-[4-(2-acetylamino-ethylamino)-5-trifluoromethyl-pyrimidin-2-ylamino]-2-chloro-N-methyl-benzamide] was < 100 nM; that for `O=C1CCCN1CCCNc1nc(Nc2ccc3cn[nH]c3c2)ncc1C(F)(F)F` [Example 2(038), 1-{3-[2-(1H-Indazol-6-ylamino)-5-trifluoromethyl-pyrimidin-4-ylamino]-propyl}-pyrrolidin-2-one] was < 100 nM. On to `O=C1CCCN1CCCNc1nc(Nc2ccc3ccccc3c2)ncc1C(F)(F)F` [Example 1(003), 2-(2-naphthylamino)-4-(3-(2-oxo-pyrrolidin-1-yl)-propyl-1-amino)-5-trifluoromethyl-pyrimidine], for which the IC50 was < 100 nM. As for `CC(=O)NCCNc1nc(Nc2ccc(C(N)=O)cc2)ncc1Br` [Example 1(663), 4-[4-(2-acetylamino-ethylamino)-5-bromo-pyrimidin-2-ylamino]-benzamide], the IC50 was < 100 nM. In the case of `CN(C)C(=O)NCCCNc1nc(Nc2ccc3cnn(C)c3c2)ncc1C(F)(F)F` [Example 7(035), 1,1-dimethyl-3-{3-[2-(1-methyl-1H-indazol-6-ylamino)-5-trifluoromethyl-pyrimidin-4-ylamino]-propyl}-urea] it was < 100 nM; in that of `NC(=O)CCNc1nc(Nc2ccc(Cl)c(Cl)c2)ncc1C(F)(F)F` [Example 1(025), 2-(3,4-dichloro-phenylamino)-4-(2-aminocarbonyl-1-ethylamino)-5-trifluoromethyl-pyrimidine], < 100 nM; in that of `CC(C)COC(=O)NCCCNc1nc(Nc2ccc3cnn(C)c3c2)ncc1C(F)(F)F` [Example 7(024)], < 100 nM. For `CC(=O)NCCNc1nc(Nc2ccc(C(=O)NC(C)c3ccccc3)cc2)ncc1C(F)(F)F` (centres unmarked) [Example 8(028), 4-[4-(2-acetylamino-ethylamino)-5-trifluoromethyl-pyrimidin-2-ylamino]-N-(1-phenyl-ethyl)-benzamide], the IC50 was < 100 nM.
